# Measurements from US20250154250A1, “CEACAM5 ADC-ANTI-PD1/PD-L1 COMBINATION THERAPY” (SANOFI, priority 2021, published 2025).
# Where two headings read alike, the source gives them in different places.
# Assays:
# [1] = test system: subcutaneous colon MC38 syngeneic tumor; assay: subcutaneous colon MC38 syngeneic tumor model; details: for Drug death (day) / Mean body weight change in % at nadir (day) / Regression CR / Regression PR: n=6; for tolerability of treatments: doses lower than maximal tolerated dose (MTD)
# Description: […] Control groups were left untreated. The doses of the compounds used are given in mg/kg.
# For the evaluation of anti-tumor activity, animals were weighed, and tumors were measured by caliper 2 times weekly. A dosage producing a 20% weight loss at nadir (mean of group) or 10% or more drug deaths, was considered an excessively toxic dosage. Animal body weights included the tumor weights. Tumor volumes were calculated using the formula mass (mm^3)=[length (mm)×width (mm)×width (mm)]/2. The primary efficacy end points are ΔT/ΔC, percent median regression, partial and complete regressions (PR and CR).
# Changes in tumor volume for each treated (T) and control (C) are calculated for each tumor by subtracting the tumor volume on the day of first treatment (staging day) from the tumor volume on the specified observation day. The median ΔT is calculated for the treated group and the median ΔC is calculated for the control group. Then the ratio ΔT/ΔC is calculated and expressed as a percentage: ΔT/ΔC=(delta T/delta C)×100.
# The dose is considered as therapeutically active when ΔT/ΔC is lower than 40% and very active when ΔT/ΔC is lower than 10%.
# % tumor regression is defined as the % of tumor volume decrease in the treated group at a specified observation day compared to its volume on the first day of first treatment.
# At a specific time point and for each animal, % regression is calculated. The median % regression is then calculated for the group:
# Partial regression (PR): Regressions are defined as partial if the tumor volume decreases to 50% of the tumor volume at the start of treatment.
# Complete regression (CR): Complete regression is achieved when tumor volume=0 mm^3 (CR is considered when tumor volume cannot be recorded).
# Control groups were left untreated. The doses of the compounds used are given in mg/kg.
# See above (Ex 2) for the conditions of anti-tumor activity and toxicity evaluation.
# CEACAM1 = CEACAM1 (Homo sapiens, UniProt P13688)
# CEACAM1, sequence (P13688 35-526): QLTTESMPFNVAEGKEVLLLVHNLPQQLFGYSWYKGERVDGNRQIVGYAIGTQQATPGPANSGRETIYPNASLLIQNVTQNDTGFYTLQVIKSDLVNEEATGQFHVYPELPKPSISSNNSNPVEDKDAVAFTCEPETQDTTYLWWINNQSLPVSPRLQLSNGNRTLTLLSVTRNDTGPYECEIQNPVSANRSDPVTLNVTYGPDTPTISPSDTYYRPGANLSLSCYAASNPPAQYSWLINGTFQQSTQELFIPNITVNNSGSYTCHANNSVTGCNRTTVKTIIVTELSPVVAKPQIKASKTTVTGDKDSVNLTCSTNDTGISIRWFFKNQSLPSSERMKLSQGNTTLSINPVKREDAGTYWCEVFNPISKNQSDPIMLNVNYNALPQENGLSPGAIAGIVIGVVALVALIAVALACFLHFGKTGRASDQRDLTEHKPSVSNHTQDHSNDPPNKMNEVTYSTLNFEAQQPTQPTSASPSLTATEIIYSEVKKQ
# CEACAM6 = CEACAM6 (Homo sapiens, UniProt P40199)
# CEACAM6, sequence (P40199 35-320): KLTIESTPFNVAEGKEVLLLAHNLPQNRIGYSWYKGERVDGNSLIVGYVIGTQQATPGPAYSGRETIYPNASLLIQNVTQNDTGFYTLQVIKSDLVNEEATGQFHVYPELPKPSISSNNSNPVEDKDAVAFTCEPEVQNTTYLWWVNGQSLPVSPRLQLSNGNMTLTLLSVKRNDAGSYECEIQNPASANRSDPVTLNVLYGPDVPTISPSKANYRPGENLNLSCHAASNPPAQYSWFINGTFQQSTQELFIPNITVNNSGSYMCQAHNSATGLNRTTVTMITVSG
# CEACAM7 = CEACAM7 (Homo sapiens, UniProt Q14002)
# CEACAM7, sequence (Q14002 36-242): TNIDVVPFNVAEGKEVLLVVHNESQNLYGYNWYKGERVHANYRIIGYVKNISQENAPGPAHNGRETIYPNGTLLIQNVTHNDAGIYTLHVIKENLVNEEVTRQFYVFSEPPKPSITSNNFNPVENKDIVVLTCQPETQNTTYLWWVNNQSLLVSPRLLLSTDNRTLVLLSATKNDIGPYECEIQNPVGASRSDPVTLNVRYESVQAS
# CEACAM8 = CEACAM8 (Homo sapiens, UniProt P31997)
# CEACAM8, sequence (P31997 35-320): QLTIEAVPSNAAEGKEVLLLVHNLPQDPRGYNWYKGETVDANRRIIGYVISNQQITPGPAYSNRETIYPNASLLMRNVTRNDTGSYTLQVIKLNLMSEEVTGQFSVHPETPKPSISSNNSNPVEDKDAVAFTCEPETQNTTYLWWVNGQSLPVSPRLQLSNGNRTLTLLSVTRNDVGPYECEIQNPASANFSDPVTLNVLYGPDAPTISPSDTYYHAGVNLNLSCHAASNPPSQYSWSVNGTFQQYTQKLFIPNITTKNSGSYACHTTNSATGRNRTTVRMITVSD
# [2] = test system: NSQ NSCLC with tumor CEACAM5 expression
# [3] = test system: human primary colon and stomach tumors; details: mice bearing human primary colon and stomach tumors; see WO 2014/079886; cited from earlier work
# [4] = antibody as single agent 10 mg/kg IV (total 40)
# [5] = huMAb2-3-SPDB-DM4 15 mg/kg IV day 10, alone or + antibody 10 mg/kg IV
# [6] = huMAb2-3-SPDB-DM4 25 mg/kg IV day 10, alone or + antibody 10 mg/kg IV
substance,measurement,setting,value
"Atezolizumab [anti-mu/huPD-L1 (Atezolizumab), reference compound]",Biological comments,[1]; [4],Marginally
same,Biological comments,"[1]; antibody as single agent 10 mg/kg IV (total 40), listed as anti-mu/PD-L1 mAb",marginally active
same,Drug death (day),[1]; [4],0/6
same,Mean body weight change in % at nadir (day),[1]; [4],+2.08%
same,Regression CR,[1]; [4],1/6
same,Regression PR,[1]; [4],1/6
same,tolerability of treatments,[1],well tolerated and did not induce toxicity
tusamitamab ravtansine,tolerability of treatments,[1],well tolerated and did not induce toxicity
same,Biological comments,[1]; [5],Inactive
same,Median ΔT/ΔC in % (D 22),[1]; [5],46%
same,Drug death (day),[1]; [5],0/6
same,Mean body weight change in % at nadir (day),[1]; [5],+3.95%
same,Regression CR,[1]; [5],0/6
same,Regression PR,[1]; [5],0/6
same,Biological comments,[1]; [6],highly active
same,Median ΔT/ΔC in % (D 22),[1]; [6],<0%
same,Drug death (day),[1]; [6],0/6
same,Mean body weight change in % at nadir (day),[1]; [6],+1.30%
same,Regression CR,[1]; [6],1/6
same,Regression PR,[1]; [6],4/6
same,recognition of CEACAM1,CEACAM1,does not recognize
same,recognition of CEACAM6,CEACAM6,does not recognize
same,recognition of CEACAM7,CEACAM7,does not recognize
same,recognition of CEACAM8,CEACAM8,does not recognize
same,overall response rate per RECIST 1.1,"[2]; 28 heavily pre-treated patients, tumor CEACAM5 expression ≥1% and <5 0%",7.1%
same,overall response rate per RECIST 1.1,"[2]; 64 heavily pre-treated patients, tumor CEACAM5 expression ≥50%",20.3%
same,tumor growth in vivo,[3],markedly inhibit tumor growth
